Data on 3 substances can be found in patent US5747660A, “Nucleic acid encoding prostaglandin F2α receptor regulatory protein” (priority 1995, dated 1998).

The subject of assay [1] is prostaglandin F2α receptor (FP). Nature of the assay: [3H]PGF2α specific binding to COS cells cotransfected with FP cDNA and a test cDNA construct. The class given is cell-based, rat, mouse. Particulars: COS cells cotransfected with FP + the named DNA; FP alone = 100.
For assay [2] the test system is unchanged. Nature of the assay: Cotransfection of a third construct along with FP and FPRP, [3H]PGF2α binding. The format is cell-based. Particulars: FP + FPRP + the named third construct; FP + pSG5 = 100. The source says:
Therefore, a strategy based on cotransfection of a third construct (along with FP and FPRP) was pursued. These third party constructs included ones coding for the protease inhibitors alpha-l trypsin inhibitor and crmA, an inhibitor of cell death, bcl2, and few nonspecific control molecules including the vitamin D receptor, a secreted immunoglobulin molecule, and the empty parent vector pSG5 only. All groups and treatments were compared with control treatment of FP+pSG5 vs. FP+FPRP.

With “1 Trypsin Inhibitor: protease inhibitor alpha-l trypsin inhibitor, cotransfected construct”, the “% CONTROL, [^3 H]PGF2α specific binding” value in assay [1] was 141 ± 3%. In addition, in assay [2], the “% Control [^3 H]PGF2α Binding” value was 38 ± 3%.

Take “bcl-2: an inhibitor of cell death, cotransfected construct”: the “% CONTROL, [^3 H]PGF2α specific binding” value in assay [1] was 84 ± 5%. Also, in assay [2], the “% Control [^3 H]PGF2α Binding” value was 30 ± 3%.

Turning to “Vitamin D receptor: over-expressed control protein, cotransfected construct”, the “% CONTROL, [^3 H]PGF2α specific binding” value in assay [1] was determined as 131 ± 7%. The “% Control [^3 H]PGF2α Binding” value in assay [2] is 36 ± 3%.
